Assay [1] concerns the target T1, 5-hydroxytryptamine receptor 7 (Homo sapiens, UniProt P34969). As to the kind of experiment: Displacement of [3H]LSD from human 5HT7 in sf9 cells at 1 uM. The class given is cell-based.
Assay [2] has as its target T1, 5-hydroxytryptamine receptor 7. As to the kind of experiment: Displacement of [3H]LSD from human 5HT7 in sf9 cells at 0.01 uM. The class given is cell-based. A general note: Displacement assays read how much labelled ligand stays bound in the presence of the test substance.
The target of assay [3] is T2, 5-hydroxytryptamine receptor 1A (Rattus norvegicus) (UniProt P19327).
T2 sequence (whole entry): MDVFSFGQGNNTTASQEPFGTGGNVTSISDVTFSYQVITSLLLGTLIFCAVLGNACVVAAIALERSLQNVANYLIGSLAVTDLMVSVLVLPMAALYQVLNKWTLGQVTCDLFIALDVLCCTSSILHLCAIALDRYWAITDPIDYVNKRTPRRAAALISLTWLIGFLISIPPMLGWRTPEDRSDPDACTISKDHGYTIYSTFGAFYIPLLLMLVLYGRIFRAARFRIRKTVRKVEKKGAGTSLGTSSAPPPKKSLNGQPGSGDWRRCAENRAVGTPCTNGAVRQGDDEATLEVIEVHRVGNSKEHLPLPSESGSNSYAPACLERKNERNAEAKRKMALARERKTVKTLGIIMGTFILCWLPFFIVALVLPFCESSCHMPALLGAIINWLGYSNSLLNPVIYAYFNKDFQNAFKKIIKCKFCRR
As to the kind of experiment: Binding affinity to rat 5HT1A at 1 uM.

Assay [4] deals with T2, 5-hydroxytryptamine receptor 1A (Rattus norvegicus). Kind of assay: Binding affinity to rat 5HT1A at 0.01 uM.
Assay [5] in a line: Selectivity ratio of rat 5HT1A to human 5HT7.
The target of assay [6] is T1, 5-hydroxytryptamine receptor 7. As to the kind of experiment: Displacement of [3H]LSD from human 5HT7 in sf9 cells. The format is cell-based.
For assay [7], the target named is T3, 5-hydroxytryptamine receptor 1A (Rattus norvegicus, UniProt P19327).
T3 sequence (P19327 whole entry): T2 sequence (whole entry)
As to the kind of experiment: Binding affinity to rat 5HT1A.

Assay [8] deals with 5-hydroxytryptamine receptor 7 (Rattus norvegicus) (UniProt P32305). Kind of assay: Antagonist activity at 5HT7 receptor stimulated aldosterone secretion from rat adrenal cortex. The format is functional, tissue-based.
Sequence of 5-hydroxytryptamine receptor 7 (Rattus norvegicus) (P32305 whole entry): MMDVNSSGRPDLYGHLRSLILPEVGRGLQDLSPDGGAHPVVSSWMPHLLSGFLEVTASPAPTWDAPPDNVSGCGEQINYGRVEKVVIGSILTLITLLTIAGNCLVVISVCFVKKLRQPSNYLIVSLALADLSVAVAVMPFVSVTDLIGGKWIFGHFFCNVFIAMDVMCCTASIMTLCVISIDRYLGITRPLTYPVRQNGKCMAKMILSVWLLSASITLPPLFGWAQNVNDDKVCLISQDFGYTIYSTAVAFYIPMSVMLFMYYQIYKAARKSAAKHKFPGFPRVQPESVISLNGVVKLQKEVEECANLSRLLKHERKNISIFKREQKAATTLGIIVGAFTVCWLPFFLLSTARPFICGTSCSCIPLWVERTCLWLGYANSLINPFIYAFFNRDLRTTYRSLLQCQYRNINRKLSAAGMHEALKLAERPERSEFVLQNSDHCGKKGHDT

Each structure is given as a SMILES string.

T1 sequence (P34969 whole entry): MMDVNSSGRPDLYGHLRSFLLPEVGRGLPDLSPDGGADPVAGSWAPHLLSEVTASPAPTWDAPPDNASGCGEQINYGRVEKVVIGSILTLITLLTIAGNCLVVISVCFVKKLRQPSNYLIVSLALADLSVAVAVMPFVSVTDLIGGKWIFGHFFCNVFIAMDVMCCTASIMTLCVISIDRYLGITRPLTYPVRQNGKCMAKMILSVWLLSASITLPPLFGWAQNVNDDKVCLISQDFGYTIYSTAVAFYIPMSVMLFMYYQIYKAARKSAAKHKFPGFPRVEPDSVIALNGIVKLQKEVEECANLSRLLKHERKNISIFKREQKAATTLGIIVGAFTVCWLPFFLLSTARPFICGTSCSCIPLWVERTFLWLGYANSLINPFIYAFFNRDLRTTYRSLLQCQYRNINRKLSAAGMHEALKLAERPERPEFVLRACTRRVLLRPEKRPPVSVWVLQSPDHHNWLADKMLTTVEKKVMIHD

With `COc1cccc(OC)c1-c1cccc(CCN(C)C)c1`, the inhibition (usually the share of the control response that was lost under treatment) in assay [1] came out at 100%; in assay [2], 50%; in assay [3], 18%; in assay [4], 3%. Further, in assay [5], the Ratio Ki turned out to be 60. Moreover, the Ki – broadly, a dissociation constant, usually derived from enzyme kinetics or from competition with a known ligand – worked out at 8.6 nM in assay [6] and 4830 nM in assay [7]. In addition, the Activity result in assay [8] (filed as partial agonist) was “Partial agonist”.

Consider `Cc1cc(C)c(-n2ccc(CCN)c2)c(C)c1`, for which the inhibition in assay [1], in assay [2], in assay [3] and in assay [4] was 0% in each case.

With `Cc1cc(C)c(-n2ccc(CCN(C)C)c2)c(C)c1`, the inhibition in assay [1] worked out at 56%; in assay [2], 3%; in assay [3] it was 20%; in assay [4] it was 0%.

As to `CN(C)CCc1cccc(-c2ccsc2)c1`, the inhibition in assay [1] was 87%; in assay [2], 12%; in assay [3] it was 64%; in assay [4], 20%.

As for `Cc1cccc(-n2ccc(CCN)c2)c1C`, the inhibition in assay [1] was determined as 48%; in assay [2] it was 25%; in assay [3] it was 17%; in assay [4], 0%.

On to `CN(C)CCc1cccc(-c2cccs2)c1`, for which the inhibition was determined as 75% in assay [1], 12% in assay [2], 63% in assay [3] and 6% in assay [4].

As to `Cc1ccccc1-c1cccc(CCN)c1`, the inhibition in assay [1] was 92%; in assay [2], 71%; in assay [3] it was 37%; in assay [4], 0%. The Ki in assay [6] was 7.5 nM; in assay [7], 1470 nM.

As to `Cc1ccccc1-c1cccc(CCN(C)C)c1`, the inhibition in assay [1] amounted to 81%; in assay [2] it was 72%; in assay [3] it was 85%; in assay [4], 1%. Also, the Ki in assay [6] is 7.6 nM; in assay [7], 443 nM. Moreover, in assay [8], the pKb – broadly, −log10 of the Kb, conventionally taken in molar units – worked out at 7.03.

In the case of `CN(C)CCc1cccc(-c2ccccc2)c1`, the inhibition was 70% in assay [1], 18% in assay [2], 18% in assay [3] and 2% in assay [4].

With `Cc1cccc(C)c1-c1cccc(CCN(C)C)c1`, the inhibition worked out at 93% in assay [1], 73% in assay [2], 33% in assay [3] and 6% in assay [4]. Further, the Ratio Ki in assay [5] turned out to be 60. Moreover, the Ki in assay [6] worked out at 6.2 nM; in assay [7], 2250 nM.

Turning to `COc1cccc(OC)c1-c1cccc(CCN2CCOCC2)c1`, the inhibition in assay [1] was 9%; in assay [2], 0%; in assay [3], 14%; in assay [4], 7%.

Take `COc1ccc(-c2cccc(CCN(C)C)c2)cc1OC`: the inhibition worked out at 38% in assay [1], 0% in assay [2], 52% in assay [3] and 12% in assay [4].

Take `COc1ccccc1-c1cccc(CCN(C)C)c1`: the inhibition in assay [1] amounted to 69%; in assay [2], 23%; in assay [3] it was 48%; in assay [4], 12%. Further, the Ki in assay [6] stood at 8.4 nM; in assay [7], 531 nM.

Turning to `Cc1ccccc1-n1ccc(CCN)c1`, the inhibition in assay [1] came out at 62%; in assay [2], 5%; in assay [3] it was 16%; in assay [4] it was 0%.

For the compound `Cc1ccccc1-n1ccc(CCN(C)C)c1`, the inhibition in assay [1] amounted to 87%; in assay [2], 16%; in assay [3] it was 41%; in assay [4], 14%.

`COc1ccc(-c2cccc(CCN(C)C)c2)cc1`: the inhibition in assay [1] turned out to be 52%; in assay [2], 9%; in assay [3], 37%; in assay [4] it was 0%.

Source of the values: ChEMBL document CHEMBL1147987, “Novel aminoethylbiphenyls as 5-HT7 receptor ligands” (Bioorg Med Chem Lett, 2007).
